Results published in PubChem BioAssay AID1963966 (Molecular Pharmacology Branch, DTP, NCI, 2024).

Test system: 935938-334-R-J1-PDC spheroids with HUVEC/MSC, viability
Assay: Anticancer human tumor 935938-334-R-J1-PDC patient-derived small intestine adenocarcinoma cell line growth inhibition [PI3K]
Details: for IC50: curve of first compound; for viability, T/C: stronger effect = lower value
Summary of the method: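 Targeted small molecules plus PI3K inhibitors, half-log dose series from Cmax (default top 10 microM), were applied to heterotypic spheroids of cancer cells with HUVEC and MSCs. Viability indicated growth inhibition.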

[1] = second compound 0.00316 µM, first compound 0.000316 µM
[2] = second compound 0.00316 µM, first compound 0.001 µM
[3] = second compound 0.00316 µM, first compound 0.00316 µM
[4] = second compound 0.00316 µM, first compound 0.01 µM
[5] = second compound 0.00316 µM, first compound 0.0316 µM
[6] = second compound 0.00316 µM, first compound 0.1 µM
[7] = second compound 0.01 µM, first compound 0.000316 µM
[8] = second compound 0.01 µM, first compound 0.001 µM
[9] = second compound 0.01 µM, first compound 0.00316 µM
[10] = second compound 0.01 µM, first compound 0.01 µM
[11] = second compound 0.01 µM, first compound 0.0316 µM
[12] = second compound 0.01 µM, first compound 0.1 µM
[13] = second compound 0.0316 µM, first compound 0.000316 µM
[14] = second compound 0.0316 µM, first compound 0.001 µM
[15] = second compound 0.0316 µM, first compound 0.00316 µM
[16] = second compound 0.0316 µM, first compound 0.01 µM
[17] = second compound 0.0316 µM, first compound 0.0316 µM
[18] = second compound 0.0316 µM, first compound 0.1 µM
[19] = second compound 0.1 µM, first compound 0.000316 µM
[20] = second compound 0.1 µM, first compound 0.001 µM
[21] = second compound 0.1 µM, first compound 0.00316 µM
[22] = second compound 0.1 µM, first compound 0.01 µM
[23] = second compound 0.1 µM, first compound 0.0316 µM
[24] = second compound 0.1 µM, first compound 0.1 µM
[25] = second compound 0.316 µM, first compound 0.000316 µM
[26] = second compound 0.316 µM, first compound 0.001 µM
[27] = second compound 0.316 µM, first compound 0.00316 µM
[28] = second compound 0.316 µM, first compound 0.01 µM
[29] = second compound 0.316 µM, first compound 0.0316 µM
[30] = second compound 0.316 µM, first compound 0.1 µM
[31] = second compound 1 µM, first compound 0.000316 µM
[32] = second compound 1 µM, first compound 0.001 µM
[33] = second compound 1 µM, first compound 0.00316 µM
[34] = second compound 1 µM, first compound 0.01 µM
[35] = second compound 1 µM, first compound 0.0316 µM
[36] = second compound 1 µM, first compound 0.1 µM
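Further: compound exposure lasted seven days before viability was read.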
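Wherever viability, T/C is given: percent of vehicle DMSO treated spheroid viability so 100% = untreated.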

`Cn1ncnc1[C@H]1c2n[nH]c(=O)c3cc(F)cc(c23)N[C@@H]1c1ccc(F)cc1` + CC(Nc1ccc2c(c1)OCCn1cc(N3C(=O)OCC3C(F)F)nc1-2)C(N)=O was tested, and the IC50 (second compound 0.00316 µM) was > 100 nM, the IC50 (second compound 0.01 µM) was > 100 nM and the IC50 (second compound 0.0316 µM) was > 100 nM. For the same compound, the IC50 (second compound 0.1 µM) was > 100 nM, the IC50 (second compound 0.316 µM) was > 100 nM and the IC50 (second compound 1 µM) was 10 nM. It also gave a viability, T/C [1] of 87.1%, a viability, T/C [2] of 99.8% and a viability, T/C [3] of 102%. For the same compound, the viability, T/C [4] was 87.2%, the viability, T/C [5] was 78.6% and the viability, T/C [6] was 78.2%. It also gave a viability, T/C [7] of 79.6%, a viability, T/C [8] of 83.4% and a viability, T/C [9] of 112%. For the same compound, the viability, T/C [10] was 87.5%, the viability, T/C [11] was 73.7% and the viability, T/C [12] was 95.7%. The viability, T/C [13] was 84.6%, the viability, T/C [14] was 102% and the viability, T/C [15] was 84.2%. The viability, T/C [16] was 67.9%, the viability, T/C [17] was 80.6% and the viability, T/C [18] was 103%. It also gave a viability, T/C [19] of 88.1%, a viability, T/C [20] of 102% and a viability, T/C [21] of 95.3%. For the same compound, the viability, T/C [22] was 79.7%, the viability, T/C [23] was 93.3% and the viability, T/C [24] was 78.2%. It also gave a viability, T/C [25] of 70.5%, a viability, T/C [26] of 94.3% and a viability, T/C [27] of 82.2%. For the same compound, the viability, T/C [28] was 91.3%, the viability, T/C [29] was 62.4% and the viability, T/C [30] was 85.8%. The viability, T/C [31] was 67.6%, the viability, T/C [32] was 72% and the viability, T/C [33] was 45.1%. The viability, T/C [34] was 44.5%, the viability, T/C [35] was 61.3% and the viability, T/C [36] was 51%.
`CC(C)n1nc(-c2ccc3oc(N)nc3c2)c2c(N)ncnc21` + COc1c(OCCCN2CCOCC2)ccc2c3n(c(=NC(=O)c4cnc(N)nc4)nc12)CCN3 was tested, and the IC50 (second compound 0.00316 µM) was > 100 nM, the IC50 (second compound 0.01 µM) was 81.8 nM and the IC50 (second compound 0.0316 µM) was 26.6 nM. For the same compound, the IC50 (second compound 0.1 µM) was < 0.316 nM, the IC50 (second compound 0.316 µM) was < 0.316 nM and the IC50 (second compound 1 µM) was < 0.316 nM. It also gave a viability, T/C [1] of 86.9%, a viability, T/C [2] of 110% and a viability, T/C [3] of 106%. It also gave a viability, T/C [4] of 99.9%, a viability, T/C [5] of 85.3% and a viability, T/C [6] of 54.8%. The viability, T/C [7] was 94.5%, the viability, T/C [8] was 83.2% and the viability, T/C [9] was 92.6%. The viability, T/C [10] was 89.5%, the viability, T/C [11] was 79.6% and the viability, T/C [12] was 43.4%. The viability, T/C [13] was 83.9%, the viability, T/C [14] was 107% and the viability, T/C [15] was 92.7%. The viability, T/C [16] was 68%, the viability, T/C [17] was 50.2% and the viability, T/C [18] was 35.1%. The viability, T/C [19] was 45.1%, the viability, T/C [20] was 59.4% and the viability, T/C [21] was 39.2%. It also gave a viability, T/C [22] of 48.2%, a viability, T/C [23] of 36.9% and a viability, T/C [24] of 34.8%. For the same compound, the viability, T/C [25] was 36.3%, the viability, T/C [26] was 38.9% and the viability, T/C [27] was 34.5%. It also gave a viability, T/C [28] of 31.1%, a viability, T/C [29] of 42.5% and a viability, T/C [30] of 31.1%. It also gave a viability, T/C [31] of 42.6%, a viability, T/C [32] of 37.2% and a viability, T/C [33] of 37.1%. It also gave a viability, T/C [34] of 32.5%, a viability, T/C [35] of 26.5% and a viability, T/C [36] of 33.4%.
